Molecular target: Human immunodeficiency virus type 1 protease (Human immunodeficiency virus 1, UniProt Q72874)
Experiment: The compound was tested for its inhibition against HIV-1 protease

| SMILES | Ki |
| --- | --- |
| COc1ccc(S(=O)(=O)N(CC2CCCC2)C[C@@H](O)CN2C(=O)C3(CCCCC3)OC[C@@H]2Cc2ccccc2)cc1 | 1.7 nM |
| O=C(N[C@H]1c2ccccc2C[C@H]1O)[C@H](Cc1ccccc1)C[C@H](O)CN1C(=O)C2(CCCCC2)C[C@@H]1Cc1ccccc1 | 50 nM |
| NC(C(=O)[C@H](Cc1ccccc1)C[C@H](O)CN1C(=O)[C@@H](Cc2ccccc2)C[C@@H]1Cc1ccccc1)[C@H]1c2ccccc2C[C@H]1O (stereo partly specified) | 0.05 nM |
| COc1ccc(S(=O)(=O)N(CC2CCCC2)C[C@@H](O)CN2C(=O)[C@@H](Cc3ccccc3)C[C@@H]2Cc2ccccc2)cc1 | 0.8 nM |
| O=C(N[C@H]1c2ccccc2C[C@H]1O)[C@H](Cc1ccccc1)C[C@H](O)CN1C(=O)C2(CCOCC2)C[C@@H]1Cc1ccccc1 | 23 nM |
| O=C(N[C@H]1c2ccccc2C[C@H]1O)[C@H](Cc1ccccc1)C[C@H](O)CN1C(=O)C2(CCN(Cc3ccccc3)CC2)C[C@@H]1Cc1ccccc1 | 2500 nM |
